Consider 19 compounds from patent EP4781984A1 (Beyang Therapeutics Co., Ltd., priority 2023, dated 2025).

Each structure is given as a SMILES string. ≈ marks a conversion by molar mass, not a printed value.

For series [1], the target named is T1, VEGFR2 (Homo sapiens, UniProt P35968).
T1 construct: purchased Carna 08-191
The experiment in a line: Kinase inhibitory activity, Mobility Shift Assay (VEGFR2). In kind it is biochemical. How it is done:
(§1) Assay for Inhibitory Activity of Compounds Against VEGFR and EGFR Kinases
(§2) This assay directly monitors the inhibitory activity of compounds on kinase phosphorylation by measuring non-phosphorylated and phosphorylated substrates in the kinase reaction using Mobility Shift Assays/IMAP™ analysis. Table 2. Reagents and Instruments
(§3) Kinase and DTT were added to 1X kinase buffer to form a 2.5X kinase solution; 10 µL of the 2.5X kinase solution was transferred to a 384-well reaction plate, and 1X kinase buffer was added to the negative control wells. The plate was incubated at room temperature for 10 minutes; FAM-labeled peptide, MgCl2, ATP, and other reagents were added to 1X kinase buffer to form a 2.5X substrate solution; 10 µL of the above 2.5X substrate solution was transferred to the 384-well reaction plate; the plate was incubated at 28°C for varying times, and then 25 µL of stop solution was added to the 384-well reaction plate to terminate the reaction. Conversion rate data were read on a CaliperEZ Reader II. […] IC50 values were fitted using XLFit excel add-in version 5.4.0.8. Y = Bottom + (Top−Bottom)/(1 + […]) [formula]
(§4) X is the log value of compound concentration, Y is the inhibition rate (% inhibition).

The nature of series [2]: Thermodynamic solubility test. In kind it is physicochemical. To be noted: buffer solution, aqueous buffer, thermodynamic from solid; thermodynamic solubility, room temperature, 8 hours shaking; buffers pH 2.0, 6.5, 7.4 used, pH of the tabulated value not given. As to the method:
Solubility Test of Compounds
Table 9. Reagents and Instruments
After sonication for 10 minutes, they were fixed on a shaker and shaken at room temperature for 8 hours. After shaking, they were sonicated for 10 minutes and centrifuged at 13000 rpm for 15 minutes. 0.1 mL of supernatant was aspirated into a new tube, rinsed with 5 mL of buffer by shaking, and the liquid was discarded. 0.5 mL of supernatant was transferred again to a new tube, centrifuged at 13000 rpm for 15 minutes, and the supernatant was taken (diluted with water if necessary) for LC-MS injection analysis. Sample concentrations were quantified using a 3-5 point calibration curve.

Series [3] concerns melanin. As to the kind of experiment: Compound binding to melanin. To be noted: cuttlefish (Sepia officinalis), melanin suspension (1 mg/mL), percentage of free drug (not bound to melanin), 2 µM compound, melanin 1 mg/mL in PBS pH 7.4, 37°C. In kind it is in vitro ADME. The source says:
Detection of Compound Binding to Melanin
Pigmented ocular tissues contain melanin within intracellular melanosomes. Drugs bind to melanin to varying degrees, from no binding to extensive binding. Therefore, melanin binding is an important characteristic affecting ocular drug delivery and biodistribution. The ability of compounds to bind to melanin must be considered in ocular drug development.
Melanin derived from cuttlefish (Sepia officinalis) melanin was purchased from Sigma Aldrich (St Louis, MO).
First, prepare a 1 mg/mL melanin suspension in PBS (pH 7.4). As a matrix washing step, suspended particles were centrifuged at 3000 rpm for 5 minutes. The resulting pellet was resuspended in fresh PBS buffer, heated to 37°C with continuous shaking, and incubated for 1 hour. Accurately pipette 2 microliters of test compound stock solution (0.1 mM) into 98 microliters of melanin suspension (1 mg/mL), resulting in a final incubation concentration of 2 µM. Similarly, accurately pipette 2 microliters of stock solution (0.1 mM) into 98 microliters of PBS buffer (containing 0.1% BSA) as a blank control sample. Samples were incubated at 37°C for 2 hours on a shaker (80-90 rpm). Then centrifuged at room temperature. 50 microliters of supernatant was aspirated and added to 50 microliters of precipitation agent (containing internal standard). All samples above were subjected to protein precipitation, centrifuged, the supernatant was taken, diluted with water (if necessary), and then injected for analysis. Simultaneously, high-binding compounds Sunitinib and chloroquine, and the low-binding compound celecoxib were measured as positive controls. An LC-MS/MS analytical method for determining compound concentration was established. The ratio of analyte/internal standard peak areas (Aanalyte/AIS) measured in the samples, calibrated by the dilution factor, was used as the surrogate concentration for data processing. The binding rate of the compound to melanin (Fb) is calculated by the formula: Fb = 100−(Ctest)/(Ccontrol) × 100% [formula]
Ctest is the drug concentration of the compound in the melanin incubation sample or the peak area ratio of the test compound to the internal standard. Ccontrol is the drug concentration of the compound in the blank control sample or the peak area ratio of the test compound to the internal standard. Percentage of free drug (Fu%) = 100 - Fb The binding rates of the compounds of the present invention to melanin are shown in the table below: Table 11. Binding Rate of Compounds to Melanin

The target in series [4] is T2, EGFR (Homo sapiens, UniProt P00533).
T2 construct: purchased Carna 08-115
As to the kind of experiment: Kinase inhibitory activity, Mobility Shift Assay (EGFR). Format: biochemical. How it is done: as §1, §2, §3, §4

Series [5] can be described thus: Ophthalmic formulations based on polyethylene glycol series vehicles: composition and state (Example 7). Format: physicochemical. The source says: In the following ophthalmic formulation preparation examples, "solution" refers to a clear, transparent liquid without visible insoluble matter. "Near-clear solution" refers to a liquid that appears close to a solution upon visual observation but may contain a small amount of insoluble particles or have a slightly opaque color. "Suspension" refers to a liquid that is visibly turbid or opaque. "Gel" refers to a completely or partially gel-like solid.
Example 7: Ophthalmic Formulations Based on Polyethylene Glycol Series Vehicles
According to the formulation composition shown in the tables below, weigh the compound powder, add it to polyethylene glycol 400, and sonicate until dissolved or nearly dissolved (heat to 50°C if necessary). Add this to a Tris-HCl buffer solution containing hydroxypropyl-β-cyclodextrin, poloxamer 188, and gellan gum (or other viscosity modifier), vortex to mix, and prepare into an eye drop formulation.

[6] abbreviates: Table 16: 2 mg/mL, Polyethylene Glycol 400 5, Poloxamer 188 1, Hydroxypropyl-β-cyclodextrin 6, Gellan Gum Gelrite 0.15, Tris-HCl Buffer (pH 6.8) 25mM.
Setting [7] is: Table 15: 10 mg/mL, Polyethylene glycol 400 10, Hydroxypropyl-β-cyclodextrin 10, Gellan Gum Gelrite 0.3, Poloxamer 188 1, Tris solution and Citric acid.

T1 sequence (P35968 20-1356): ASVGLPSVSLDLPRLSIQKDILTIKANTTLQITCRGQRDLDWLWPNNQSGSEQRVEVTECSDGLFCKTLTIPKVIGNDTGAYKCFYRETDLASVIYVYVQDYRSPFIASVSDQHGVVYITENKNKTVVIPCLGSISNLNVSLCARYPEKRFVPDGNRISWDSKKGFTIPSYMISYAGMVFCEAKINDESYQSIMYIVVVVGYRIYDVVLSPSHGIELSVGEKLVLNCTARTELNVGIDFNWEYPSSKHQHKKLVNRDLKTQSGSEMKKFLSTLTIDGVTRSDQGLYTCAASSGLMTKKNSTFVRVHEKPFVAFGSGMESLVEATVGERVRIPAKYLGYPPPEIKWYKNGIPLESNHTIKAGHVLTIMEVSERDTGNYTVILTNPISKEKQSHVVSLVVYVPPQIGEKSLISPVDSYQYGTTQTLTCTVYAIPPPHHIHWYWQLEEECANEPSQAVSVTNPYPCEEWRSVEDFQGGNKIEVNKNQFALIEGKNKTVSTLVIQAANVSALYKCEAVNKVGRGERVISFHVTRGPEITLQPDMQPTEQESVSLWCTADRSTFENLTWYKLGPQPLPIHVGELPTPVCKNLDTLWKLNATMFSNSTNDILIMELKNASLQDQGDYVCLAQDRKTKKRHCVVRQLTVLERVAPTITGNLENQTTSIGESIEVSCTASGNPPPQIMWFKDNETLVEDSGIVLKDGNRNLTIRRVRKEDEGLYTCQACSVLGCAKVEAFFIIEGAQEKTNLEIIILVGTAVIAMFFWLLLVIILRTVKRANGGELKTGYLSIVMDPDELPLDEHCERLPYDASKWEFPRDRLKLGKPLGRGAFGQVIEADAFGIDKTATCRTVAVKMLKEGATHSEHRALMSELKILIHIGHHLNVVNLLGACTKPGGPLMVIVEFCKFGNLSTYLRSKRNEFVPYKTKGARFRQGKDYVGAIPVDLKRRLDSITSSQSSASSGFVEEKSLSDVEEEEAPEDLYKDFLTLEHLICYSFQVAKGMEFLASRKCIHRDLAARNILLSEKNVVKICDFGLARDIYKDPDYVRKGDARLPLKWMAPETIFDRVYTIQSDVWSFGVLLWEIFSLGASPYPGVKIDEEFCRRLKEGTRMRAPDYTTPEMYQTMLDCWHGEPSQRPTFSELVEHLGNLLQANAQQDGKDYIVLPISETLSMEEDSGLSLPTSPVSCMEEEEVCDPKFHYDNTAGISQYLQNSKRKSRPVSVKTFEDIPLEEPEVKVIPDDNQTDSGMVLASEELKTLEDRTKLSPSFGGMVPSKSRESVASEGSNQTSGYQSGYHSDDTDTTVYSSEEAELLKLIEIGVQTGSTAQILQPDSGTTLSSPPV
T2 sequence (P00533 25-1210): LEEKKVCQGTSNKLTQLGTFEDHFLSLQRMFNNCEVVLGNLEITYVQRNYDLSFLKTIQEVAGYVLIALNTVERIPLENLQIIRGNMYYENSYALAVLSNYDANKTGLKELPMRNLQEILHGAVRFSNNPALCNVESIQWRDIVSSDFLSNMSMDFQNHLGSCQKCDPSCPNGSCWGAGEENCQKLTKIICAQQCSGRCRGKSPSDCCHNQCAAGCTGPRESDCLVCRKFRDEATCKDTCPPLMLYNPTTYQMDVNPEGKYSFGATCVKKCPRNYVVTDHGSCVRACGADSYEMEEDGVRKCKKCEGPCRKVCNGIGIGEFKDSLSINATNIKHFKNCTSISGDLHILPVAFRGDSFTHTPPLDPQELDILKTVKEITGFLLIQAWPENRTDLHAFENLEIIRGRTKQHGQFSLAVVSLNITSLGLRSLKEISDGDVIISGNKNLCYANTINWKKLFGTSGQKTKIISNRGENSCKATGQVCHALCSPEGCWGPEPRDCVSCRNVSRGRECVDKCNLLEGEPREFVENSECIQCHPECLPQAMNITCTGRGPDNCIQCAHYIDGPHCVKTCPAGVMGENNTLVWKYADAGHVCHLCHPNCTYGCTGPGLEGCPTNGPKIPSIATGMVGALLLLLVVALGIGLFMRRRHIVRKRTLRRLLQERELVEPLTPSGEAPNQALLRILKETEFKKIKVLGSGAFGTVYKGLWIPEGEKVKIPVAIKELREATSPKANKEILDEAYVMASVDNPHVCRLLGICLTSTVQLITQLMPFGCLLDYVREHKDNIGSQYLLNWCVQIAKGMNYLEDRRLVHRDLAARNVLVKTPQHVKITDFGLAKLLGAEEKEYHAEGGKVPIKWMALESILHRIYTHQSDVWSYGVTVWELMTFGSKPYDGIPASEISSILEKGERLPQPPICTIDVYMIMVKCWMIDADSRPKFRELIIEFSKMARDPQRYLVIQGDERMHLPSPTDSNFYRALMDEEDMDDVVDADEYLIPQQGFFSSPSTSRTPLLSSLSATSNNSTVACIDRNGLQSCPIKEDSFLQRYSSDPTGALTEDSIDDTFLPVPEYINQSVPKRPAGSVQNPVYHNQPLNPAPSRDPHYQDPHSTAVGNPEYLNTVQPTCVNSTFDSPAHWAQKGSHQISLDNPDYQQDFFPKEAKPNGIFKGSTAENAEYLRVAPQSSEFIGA

By IC50 is commonly meant the point on the concentration scale where inhibition reaches its midpoint. For orientation: solubility means how much of the substance goes into solution per volume. A lower solubility goes with a poorly soluble substance. The fraction unbound is the share of the substance not bound to proteins or other matrix. Read a high fraction unbound as much free substance. Turning to `O=C(NC1CC1)c1ccccc1Nc1ccc2c(/C=C/c3ccc(CN4CCCC4)cn3)n[nH]c2c1` [Compound I-82, N-cyclopropyl-2-({3-[(E)-2-{5-[(pyrrolidin-1-yl)methyl]pyridin-2-yl}ethenyl]-1H-indazol-6-yl}amino)benzamide], the IC50 in series [1] is not above 1 nM. Besides, in series [2], the concentration in solution (solubility at 8 h) was 294 µg/mL (≈ 614 µM). In series [3], the fraction unbound at 2 h, 2 µM was in the range of 0.01 to 0.05.

With `O=C(NC1CC1)c1cc(F)ccc1Sc1ccc2c(/C=C/c3cc(CCCN4CCCC4)ccn3)n[nH]c2c1` [Compound I-119], the IC50 was not above 1 nM in series [1] and more than 60000 nM in series [4].

As for `O=C(NC1CC1)c1ccc(F)cc1Sc1ccc2c(/C=C/c3ccc(CN4CCCC4)cn3)n[nH]c2c1` [Compound I-79], the IC50 in series [1] is not above 1 nM. The compound further gave a solubility at 8 h in series [2] of 80.4 µg/mL (≈ 157 µM). For the same compound, the fraction unbound at 2 h, 2 µM in series [3] was more than 0.05.

As for `O=C(NC1CC1)c1cc(F)ccc1Sc1ccc2c(/C=C/c3cnn(CCCN4CCCC4)c3)n[nH]c2c1` [Compound I-46], the IC50 in series [1] is not above 1 nM.

Consider `CCNC(=O)c1cccc(F)c1Sc1ccc2c(/C=C/c3ccc(CN4CCCC4)cn3)n[nH]c2c1` [Compound I-75, N-ethyl-3-fluoro-2-({3-[(E)-2-{5-[(pyrrolidin-1-yl)methyl]pyridin-2-yl}ethenyl]-1H-indazol-6-yl}sulfanyl)benzamide], for which, in series [5] (setting [6]), the “State Description: pH” value was approximately 7 and the “State Description: state” value is recorded as “solution”.

For `CNC(=O)c1cccc(F)c1Sc1ccc2c(/C=C/c3ccc(CN4CCCC4)cn3)n[nH]c2c1` [Compound I-68, 3-fluoro-N-methyl-2-({3-[(E)-2-{5-[(pyrrolidin-1-yl)methyl]pyridin-2-yl}ethenyl]-1H-indazol-6-yl}sulfanyl)benzamide], the values for the IC50 in series [1] and in series [4] were 1 to 10 nM and 6000 to 60000 nM, respectively.

With `O=C(NC1CC1)c1ccccc1Sc1ccc2c(/C=C/c3cc(CCCN4CCCC4)ccn3)n[nH]c2c1` [Compound I-120], the IC50 is not above 1 nM in series [1] and more than 60000 nM in series [4].

On to `CNC(=O)c1ccccc1Sc1ccc2c(/C=C/c3ccnn3CCN3CCCC3)n[nH]c2c1` [Compound I-25], for which the IC50 in series [1] was more than 100 nM. The compound further had a solubility at 8 h in series [2] of 216 µg/mL (≈ 457 µM). Also, the fraction unbound at 2 h, 2 µM in series [3] was more than 0.05.

Regarding `CCNC(=O)c1ccccc1Sc1ccc2c(/C=C/c3ccc(CN(CC)CC)cn3)n[nH]c2c1` [Compound I-86, 2-({3-[(E)-2-{5-[(diethylamino)methyl]pyridin-2-yl}ethenyl]-1H-indazol-6-yl}thio)-N-ethylbenzamide], the solubility at 8 h in series [2] amounted to 1130 µg/mL (≈ 2320 µM). This compound showed a free fraction (fraction unbound) at 2 h, 2 µM in series [3] of 0.01 to 0.05. For the same compound, in series [5] (setting [7]), the “State Description: pH” value was approximately 5.5 and the “State Description: state” value was “near-clear solution”. Besides, in series [5] (setting [6]), the “Osmolality (mOsm/kg)” value is given as approximately 300 mOsm/kg, the “State Description: pH” value was approximately 7 and the “State Description: state” value was “solution”.

In the case of `CCNC(=O)c1ccc(F)cc1Sc1ccc2c(/C=C/c3cnn(CCCN4CCCC4)c3)n[nH]c2c1` [Compound I-103, N-ethyl-4-fluoro-2-({3-[(E)-2-{1-[3-(pyrrolidin-1-yl)propyl]-1H-pyrazol-4-yl}ethenyl]-1H-indazol-6-yl}sulfanyl)benzamide], the 50% inhibitory concentration (IC50) in series [1] is not above 1 nM.

As for `CCNC(=O)c1ccccc1Sc1ccc2c(/C=C/c3cnn(CCCN4CCCC4)c3)n[nH]c2c1` [Compound I-101], the IC50 in series [1] is not above 1 nM; in series [4], 6000 to 60000 nM.

`CCNC(=O)c1cccc(F)c1Sc1ccc2c(/C=C/c3cccc(CN4CCCC4)n3)n[nH]c2c1` [Compound I-113, N-ethyl-3-fluoro-2-({3-[(E)-2-{6-[(pyrrolidin-1-yl)methyl]pyridin-2-yl}ethenyl]-1H-indazol-6-yl}sulfanyl)benzamide]: the IC50 in series [1] was more than 100 nM.

Regarding `CCNC(=O)c1cccc(F)c1Sc1ccc2c(/C=C/c3cc(CN4CCCC4)ccn3)n[nH]c2c1` [Compound I-114], the results for the IC50 in series [1] and in series [4] were more than 100 nM and more than 60000 nM, respectively.

As to `CCNC(=O)c1ccc(Sc2ccc3c(/C=C/c4ccc(CN(CC)CC)cn4)n[nH]c3c2)cc1F` [Compound I-87, 4-({3-[(E)-2-{5-[(diethylamino)methyl]pyridin-2-yl}ethenyl]-1H-indazol-6-yl}sulfanyl)-N-ethyl-2-fluorobenzamide], the IC50 in series [1] was more than 100 nM; in series [4], more than 60000 nM.

With `CCN(CC)CCc1ccc(/C=C/c2n[nH]c3cc(Sc4ccc(F)cc4C(=O)NC4CC4)ccc23)nc1` [Compound I-109], the IC50 in series [1] was not above 1 nM. In series [2], this compound had a solubility at 8 h of 1950 µg/mL (≈ 3680 µM). The compound further came in with a fraction unbound at 2 h, 2 µM in series [3] of more than 0.05.

Consider `CCN(CC)CCc1ccc(/C=C/c2n[nH]c3cc(Sc4cc(F)ccc4C(=O)NC4CC4)ccc23)nc1` [Compound I-108], for which the IC50 in series [1] is not above 1 nM.

As for `O=C(NC1CC1)c1ccccc1Sc1ccc2c(/C=C/c3cccc(CCN4CCCC4)n3)n[nH]c2c1` [Compound I-134], the figures for the IC50 in series [1] and in series [4] were 1 to 10 nM and more than 60000 nM, respectively.

For the compound `CCN(CC)Cc1ccc(/C=C/c2n[nH]c3cc(Sc4c(F)cccc4C(=O)NC4CC4)ccc23)nc1` [Compound I-85], the values for the IC50 in series [1] and in series [4] were 1 to 10 nM and 6000 to 60000 nM, respectively.

As for `CNC(=O)c1ccccc1Sc1ccc2c(/C=C/c3cncc(OCCN4CCCC4)c3)n[nH]c2c1` [Compound I-22], in series [4], the IC50 is more than 60000 nM. Also, the solubility at 8 h in series [2] was 57.4 µg/mL (≈ 115 µM). In series [3], this compound displayed a fraction unbound at 2 h, 2 µM of 0.01 to 0.05.
